Assay results as given in patent US20090012000A1, “Anti-Viral Peptide and Use Thereof” (TOAGOSEI CO., LTD., priority 2006, published 2009).
Ends that are not written are not given here.

Key:
[1] = test system: HVT (turkey herpes virus); assay: HVT multiplication suppression test in CEF cells, titer by plaque assay; assay type: cell-based, turkey herpes virus (FC-126 strain); conditions: for antiviral activity (viral multiplication suppression effect): result in words, peptide 10, 50 and 100 μM; for Ratio (relative ratio of virus titer, no peptide added = 1) / Titer: CEF cells, six days
Experimental: The antiviral activity (viral multiplication suppression effect) was examined for each sample antiviral peptide and each comparative sample peptide. In the present example, HVT (turkey herpes virus) was used as the target virus, and the titer was measured based on the plaque assay method.
That is to say, chicken embryo fibroblast (CEF) cells prepared from SPF (specific pathogen-free) embryonated hen's egg (purchased from Nisseiken Co., LTD) were monolayer-cultured at 37° C. using Leibowitz-McCoy 5A (1:1) mixed culture medium (LM medium). The culture was peeled from the culture dish by trypsin digestion and transferred to a 50 mL centrifugation tube. After centrifugal separation, the supernatant was discarded and the culture was suspended with LM medium.
HVT (FC-126 strain used as vaccine), which virus titer was measured beforehand, was diluted with this cell suspension to as to have 100 plaque forming units (PFU) or 400 PFU per 2 mL. This dilute solution was dispensed in each well of a 6-well plate, 2 mL in each. Then, the test peptides (Samples 1 to 4, Comparative Samples 1 to 4) were diluted with PBS to be at 2.1 mM, 1050 μM and 210 μM, and added to each well, 0.1 mL in each. The final concentration of each well after addition was respectively 100 μM, 50 μM and 10 μM. A well to which 0.1 mL of PBS not containing peptide was added was prepared as a reference.
Thereafter, the above 6-well plate was placed in a CO2 incubator (5% CO2), cultured at 37° C. for six days, and the number and size of HVT plaques that appeared were observed. Here, comparing with wells with no peptide added, when a drop in the number of plaques or a reduction in the size of plaques was not observed even when a peptide was added, the viral multiplication suppression effect of this peptide was determined to be none. On the other hand, a test peptide for which a well with smaller plaque number or plaque size was present, the titer of each well was measured, and the viral multiplication suppression effect (antiviral activity) was quantified by comparing with the quantity of virus with no peptide added.
For the method for measuring the HVT virus titer, cells in each well were recovered by trypsin digestion, serially diluted, mixed again with CEF cells, dispensed in a 6-well plate and cultured at 37° C., and the number of plaques appeared after six days were counted. The relative ratio of virus titer at each peptide concentration was determined with the virus titer (PFU/mL) of the well with no peptide added being 1. That is to say, the viral multiplication suppression effect of each test peptide can be compared using the value of this relative ratio (Ratio).

[2] = test system: A/New Calcdonia/20/99 (H1N1) influenza virus; assay: Influenza virus multiplication inhibition assay (plaque assay) in MDCK cells; assay type: cell-based; conditions: 48 hours; for Infectivity Titer, Trial 1: control 1.1 × 10^9; for Infectivity Titer, Trial 2: control 2.1 × 10^9

Substance	antiviral activity (viral multiplication suppression effect) [1]	Ratio (relative ratio of virus titer, no peptide added = 1) ([1]; peptide 100 μM)	Infectivity Titer, Trial 1 ([2]; peptide 100 μM)	also measured
EFFDAPE-COOH (EFFDAPE-OH; listed as Homo sapiens) [Comparative Sample 3, reference compound]	no viral multiplication suppression effect	–	–	–
FKIKITTAPKRYCVRPN-NH2 [Comparative Sample 4, reference compound]	no viral multiplication suppression effect	–	–	–
RKKKRKV FKIKTTAPKRYCVRPN-CONH2 (RKKKRKVFKIKTTAPKRYCVRPN-NH2) [Sample 3]	excellent antiviral activity	0.30	–	–
RKKKRKV FKVKTTAPKRYCVRPN-CONH2 (RKKKRKVFKVKTTAPKRYCVRPN-NH2) [Sample 6]	–	–	3.3 × 10^8 PFU/mL	Infectivity Titer, Trial 1 ([2]; peptide 200 μM): 1.0 × 10^8 PFU/mL
RKKKRKV FKVKTTAPRRYCVRPN-CONH2 (RKKKRKVFKVKTTAPRRYCVRPN-NH2) [Sample 5]	–	–	3.5 × 10^8 PFU/mL	Infectivity Titer, Trial 1 ([2]; peptide 50 μM): 1.0 × 10^9 PFU/mL; Infectivity Titer, Trial 2 ([2]; peptide 50 μM): 1.2 × 10^9 PFU/mL; Infectivity Titer, Trial 2 ([2]; peptide 100 μM): 6.9 × 10^8 PFU/mL
RKKKRKV-COOH (RKKKRKV-OH) [Comparative Sample 2, reference compound]	no viral multiplication suppression effect	–	–	–
RQARRNRRRRWR EFFDAPE-CONH2 (RQARRNRRRRWREFFDAPE-NH2) [Sample 1]	–	0.90	–	–
RQARRNRRRRWR EFFDARE-CONH2 (RQARRNRRRRWREFFDARE-NH2) [Sample 2]	–	0.80	–	–
RQARRNRRRRWR FKVKTTSPKKYFVRPN-CONH2 (RQARRNRRRRWRFKVKTTSPKKYFVRPN-NH2) [Sample 4]	excellent antiviral activity	0.16	5.8 × 10^8 PFU/mL	Infectivity Titer, Trial 1 ([2]; peptide 200 μM): 2.8 × 10^8 PFU/mL; Ratio (relative ratio of virus titer, no peptide added = 1) ([1]; peptide 10 μM): 1.0; Titer ([1]; peptide 10 μM): (7.6 × 10^4) PFU/mL; Ratio (relative ratio of virus titer, no peptide added = 1) ([1]; peptide 50 μM): 0.46; Titer ([1]; peptide 50 μM): (3.5 × 10^4) PFU/mL; Titer ([1]; peptide 100 μM): (1.2 × 10^4) PFU/mL
RQARRNRRRRWR-COOH (RQARRNRRRRWR-OH) [Comparative Sample 1, reference compound]	no viral multiplication suppression effect	–	–	–
